In US8575156B2, “Cyclic inhibitors of 11β-hydroxysteroid dehydrogenase 1” (Vitae Pharmaceuticals, Inc., priority 2007, dated 2013) one finds IC50 and inhibition data, which are given here for 29 molecules.

SMILES strings stand for the structures. Read-outs that look alike come from different tables or passages of the source.

The target in this assay is 11β-HSD1 (Homo sapiens, UniProt P28845). The assay is described as follows: biochemical. The settings on record: for IC50: IC50 Range, Biological Test Example 1, microsomes from CHO cells overexpressing human 11β-HSD1.
Setting [1] is: read-out: Average % inhibition at 100 nM, Biological Test Example 1, 100 nM compound.
[2] abbreviates: read-out: Average % inhibition at 100 nM.

11β-HSD1, sequence (P28845 whole entry): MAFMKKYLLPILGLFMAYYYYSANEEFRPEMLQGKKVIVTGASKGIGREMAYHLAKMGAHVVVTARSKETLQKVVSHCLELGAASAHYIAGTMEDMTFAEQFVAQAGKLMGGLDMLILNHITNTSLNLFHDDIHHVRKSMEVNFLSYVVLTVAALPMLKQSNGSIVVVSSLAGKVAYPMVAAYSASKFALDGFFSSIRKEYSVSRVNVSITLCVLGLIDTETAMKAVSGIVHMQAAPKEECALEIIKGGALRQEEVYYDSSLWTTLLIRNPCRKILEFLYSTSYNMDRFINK

In the case of `C[C@@H](c1ccc(Cl)cc1)N1CC[C@](CCCO)(c2ccc(F)cc2)OC1=O` [EXAMPLE 202, (R)-3-((1S)-1-(4-chlorophenyl)ethyl)-6-(4-fluorophenyl)-6-(3-hydroxypropyl)-1,3-oxazinan-2-one], the IC50 is under 0.1 µM. Also, the inhibition at 0.1 µM under setting [1] was 95.9%.

`CC(O)CC1(C(C)C)CCN([C@@H](C)c2ccc(-c3ccc(F)cc3F)cc2)C(=O)O1` (stereo partly drawn) [EXAMPLE 213, 3-((1S)-1-(2′,4′-difluorobiphenyl-4-yl)ethyl)-6-(2-hydroxypropyl)-6-isopropyl-1,3-oxazinan-2-one] came in with an IC50 of under 0.1 µM. Moreover, under setting [1], the inhibition at 0.1 µM was found to be 79.1%.

Regarding `C=CC[C@]1(c2ccc(F)cc2)CCN([C@@H](C)c2ccc(-c3nnc(C)o3)cc2)C(=O)O1` [EXAMPLE 215, (R)-6-allyl-6-(4-fluorophenyl)-3-((S)-1-(4-(5-methyl-1,3,4-oxadiazol-2-yl)phenyl)ethyl)-1,3-oxazinan-2-one], the IC50 was under 0.1 µM. Under setting [1], the inhibition at 0.1 µM came to 72.1%.

In turn, `C[C@@H](c1ccc(-c2cccs2)cc1)N1CC[C@](CCCO)(c2ccccc2)OC1=O` [EXAMPLE 216, (R)-6-(3-hydroxypropyl)-6-phenyl-3-((S)-1-(4-(thiophen-2-yl)phenyl)ethyl)-1,3-oxazinan-2-one] returned an IC50 of under 0.1 µM. The inhibition at 0.1 µM under setting [1] was 92.6%.

`C=CC[C@]1(c2ccc(F)cc2)CCN([C@@H](C)c2ccc(N3CCOCC3)cc2)C(=O)O1` [EXAMPLE 217, (R)-6-allyl-6-(4-fluorophenyl)-3-((S)-1-(4-morpholinophenyl)ethyl)-1,3-oxazinan-2-one] gave an IC50 of under 0.1 µM. In addition, under setting [1], the inhibition at 0.1 µM is 88%.

`CC[C@@H](c1ccc(Br)cc1)N1CC[C@](CCCO)(c2ccccc2)OC1=O` [EXAMPLE 220, (R)-3-((S)-1-(4-bromophenyl)propyl)-6-(3-hydroxypropyl)-6-phenyl-1,3-oxazinan-2-one] showed an IC50 of under 0.1 µM. The inhibition at 0.1 µM under setting [2] worked out at 85.5%.

Molecule `CC(O)C[C@]1(c2ccccc2)CCN([C@@H](C)c2ccc(-c3ccc(F)cc3)cc2)C(=O)O1` (stereo partly drawn) [EXAMPLE 224, (6S)-3-((1S)-1-(4′-fluorobiphenyl-4-yl)ethyl)-6-(2-hydroxypropyl)-6-phenyl-1,3-oxazinan-2-one] came in with an IC50 of under 0.1 µM. Also, the inhibition at 0.1 µM under setting [1] was 97.3%.

Regarding `CCC[C@]1(c2ccccc2)CCN([C@@H](C)c2ccc(-c3ccc(F)cc3F)cc2)C(=O)O1` [EXAMPLE 226, (R)-3-((S)-1-(2′,4′-difluorobiphenyl-4-yl)ethyl)-6-phenyl-6-propyl-1,3-oxazinan-2-one], the IC50 is under 0.1 µM. Moreover, the inhibition at 0.1 µM under setting [1] worked out at 90.7%.

In turn, `C[C@@H](c1ccc(-c2ccc(F)cc2F)cc1)N1CC[C@](CCS(C)(=O)=O)(c2ccc(F)cc2)OC1=O` [EXAMPLE 229, (S)-3-((S)-1-(2′,4′-difluorobiphenyl-4-yl)ethyl)-6-(4-fluorophenyl)-6-(2-(methylsulfonyl)ethyl)-1,3-oxazinan-2-one] displayed an IC50 of under 0.1 µM. Also, under setting [2], the inhibition at 0.1 µM is 81.6%.

Regarding `C=CC[C@]1(c2ccc(F)cc2)CCN([C@@H](C)c2ccc(N3CCN(C)CC3)cc2)C(=O)O1` [EXAMPLE 231, (R)-6-allyl-6-(4-fluorophenyl)-3-((S)-1-(4-(4-methylpiperazin-1-yl)phenyl)ethyl)-1,3-oxazinan-2-one], the IC50 was under 0.1 µM. Besides, the inhibition at 0.1 µM under setting [1] is 57%.

Molecule `C[C@@H](c1ccc(-c2ccc(F)cc2)cc1)N1CC[C@](CCCO)(c2cccs2)OC1=O` [EXAMPLE 232, (R)-3-((S)-1-(4′-fluorobiphenyl-4-yl)ethyl)-6-(3-hydroxypropyl)-6-(thiophen-2-yl)-1,3-oxazinan-2-one] yielded an IC50 of under 0.1 µM. For the same molecule, the inhibition at 0.1 µM under setting [1] is 96.9%.

`CC[C@@H](c1ccc(Br)cc1)N1CC[C@](CCCO)(c2ccc(F)cc2)OC1=O` [EXAMPLE 241, (R)-3-((S)-1-(4-bromophenyl)propyl)-6-(4-fluorophenyl)-6-(3-hydroxypropyl)-1,3-oxazinan-2-one] returned an IC50 of under 0.1 µM. For the same molecule, the inhibition at 0.1 µM under setting [1] was determined as 96.7%.

As for `C=CC[C@]1(c2ccc(F)cc2)CCN([C@@H](C)c2ccc(C(=O)N3CCCCC3)cc2)C(=O)O1` [EXAMPLE 243, (R)-6-allyl-6-(4-fluorophenyl)-3-((S)-1-(4-(piperidine-1-carbonyl)phenyl)ethyl)-1,3-oxazinan-2-one], the IC50 is under 0.1 µM. The inhibition at 0.1 µM under setting [1] was 38.9%.

The molecule `C[C@@H](c1ccc(-c2ccc(F)cc2)cc1)N1CC[C@](CCC(C)(C)O)(c2ccccc2)OC1=O` [EXAMPLE 248, (R)-3-((S)-1-(4′-fluorobiphenyl-4-yl)ethyl)-6-(3-hydroxy-3-methylbutyl)-6-phenyl-1,3-oxazinan-2-one] had an IC50 of under 0.1 µM. The inhibition at 0.1 µM under setting [1] was 96.7%.

Molecule `CC(=O)c1ccc(-c2ccc([C@H](C)N3CC[C@](CCCO)(c4ccccc4)OC3=O)cc2)s1` [EXAMPLE 249, (R)-3-((S)-1-(4-(5-acetylthiophen-2-yl)phenyl)ethyl)-6-(3-hydroxypropyl)-6-phenyl-1,3-oxazinan-2-one] registered an IC50 of under 0.1 µM. Further, the inhibition at 0.1 µM under setting [1] amounted to 96.3%.

For `C[C@@H](c1ccc(-c2ccc(F)cc2F)cc1)N1CC[C@](CCC(N)=O)(c2ccccc2)OC1=O` [EXAMPLE 250, 3-((R)-3-((S)-1-(2′,4′-difluorobiphenyl-4-yl)ethyl)-2-oxo-6-phenyl-1,3-oxazinan-6-yl)propanamide], the IC50 is under 0.1 µM. Further, the inhibition at 0.1 µM under setting [1] is 97.1%.

Take `CC(N)c1ccc(-c2ccc([C@H](C)N3CC[C@](CCCO)(c4ccccc4)OC3=O)cc2)s1` (stereo partly drawn) [EXAMPLE 251, (6R)-3-((1S)-1-(4-(5-(1-aminoethyl)thiophen-2-yl)phenyl)ethyl)-6-(3-hydroxypropyl)-6-phenyl-1,3-oxazinan-2-one]: the IC50 is under 0.1 µM. Under setting [1], the inhibition at 0.1 µM worked out at 90.9%.

`CC[C@@H](c1ccc(-c2ccc(F)cc2)cc1)N1CC[C@](CCCO)(c2ccc(F)cc2)OC1=O` [EXAMPLE 252, (R)-3-((S)-1-(4′-fluorobiphenyl-4-yl)propyl)-6-(4-fluorophenyl)-6-(3-hydroxypropyl)-1,3-oxazinan-2-one] returned a 50% inhibitory concentration (IC50) of under 0.1 µM. Also, under setting [1], the inhibition at 0.1 µM was 99%.

As to `CC[C@@H](c1ccc(-c2ccc(F)cc2F)cc1)N1CC[C@](CCCO)(c2ccccc2)OC1=O` [EXAMPLE 253, (R)-3-((S)-1-(2′,4′-difluorobiphenyl-4-yl)propyl)-6-(3-hydroxypropyl)-6-phenyl-1,3-oxazinan-2-one], the IC50 was under 0.1 µM. Also, under setting [1], the inhibition at 0.1 µM amounted to 93.3%.

With `CC(O)c1ccc(-c2ccc([C@H](C)N3CC[C@](CCCO)(c4ccccc4)OC3=O)cc2)s1` (stereo partly drawn) [EXAMPLE 254, (6R)-3-((1S)-1-(4-(5-(1-hydroxyethyl)thiophen-2-yl)phenyl)ethyl)-6-(3-hydroxypropyl)-6-phenyl-1,3-oxazinan-2-one], the IC50 was under 0.1 µM. Further, the inhibition at 0.1 µM under setting [1] was found to be 96%.

For `C[C@@H](c1ccc(N2CCCCS2(=O)=O)cc1)N1CC[C@](CCO)(c2ccc(F)cc2)OC1=O` [EXAMPLE 259, (S)-6-(4-fluorophenyl)-6-(2-hydroxyethyl)-3-((S)-1-(4-(1,1-dioxo-hexahydro-1,2-thiazin-2-yl)phenyl)ethyl)-1,3-oxazinan-2-one], the IC50 is under 0.1 µM. The inhibition at 0.1 µM under setting [1] came to 43.1%.

In the case of `C[C@@H](c1ccc(-c2ccc(F)cc2F)cc1)N1CC[C@](CCC(C)(C)O)(c2ccccc2)OC1=O` [EXAMPLE 260, (R)-3-((S)-1-(2′,4′-difluorobiphenyl-4-yl)ethyl)-6-(3-hydroxy-3-methylbutyl)-6-phenyl-1,3-oxazinan-2-one], the IC50 is under 0.1 µM. Under setting [1], the inhibition at 0.1 µM was determined as 94.1%.

In turn, `CC[C@@H](c1ccc(-c2ccc(F)cc2F)cc1)N1CC[C@](CCCO)(c2ccc(F)cc2)OC1=O` [EXAMPLE 261, (R)-3-((S)-1-(2′,4′-difluorobiphenyl-4-yl)propyl)-6-(4-fluorophenyl)-6-(3-hydroxypropyl)-1,3-oxazinan-2-one] yielded an IC50 of under 0.1 µM. The inhibition at 0.1 µM under setting [1] was 96.2%.

On to `CNCC(O)C[C@]1(c2ccc(F)cc2)CCN([C@@H](C)c2ccc(-c3ccc(F)cc3F)cc2)C(=O)O1` (stereo partly drawn) [EXAMPLE 265, (6S)-3-((S)-1-(2′,4′-difluorobiphenyl-4-yl)ethyl)-6-(4-fluorophenyl)-6-(2-hydroxy-3-(methylamino)propyl)-1,3-oxazinan-2-one], for which the IC50 is under 0.1 µM. In addition, the inhibition at 0.1 µM under setting [1] came out at 56.8%.

In turn, `C[C@@H](c1ccc(-c2ccc(F)cc2)cc1)N1CC[C@](CCCNS(C)(=O)=O)(c2ccccc2)OC1=O` [EXAMPLE 270, N-(3-((R)-3-((S)-1-(4′-fluorobiphenyl-4-yl)ethyl)-2-oxo-6-phenyl-1,3-oxazinan-6-yl)propyl)methanesulfonamide] yielded an IC50 of under 0.1 µM. The inhibition at 0.1 µM under setting [1] is 96.1%.

The molecule `C[C@@H](c1ccc(-c2ccc(F)cc2F)cc1)N1CC[C@](CCCOC(N)=O)(c2ccc(F)cc2)OC1=O` [EXAMPLE 272, 3-((R)-3-((S)-1-(2′,4′-difluorobiphenyl-4-yl)ethyl)-6-(4-fluorophenyl)-2-oxo-1,3-oxazinan-6-yl)propyl carbamate] showed an IC50 of under 0.1 µM. Further, the inhibition at 0.1 µM under setting [1] was found to be 93.8%.

The molecule `C[C@@H](c1ccccc1F)N1CC[C@](CCCO)(c2ccc(F)cc2)OC1=O` [EXAMPLE 284, (R)-6-(4-fluorophenyl)-3-((S)-1-(2-fluorophenyl)ethyl)-6-(3-hydroxypropyl)-1,3-oxazinan-2-one] displayed an IC50 of under 0.1 µM. Besides, the inhibition at 0.1 µM under setting [1] was determined as 97.7%.

As for `C[C@@H](c1ccc(F)cc1)N1CC[C@](CCCO)(c2ccc(F)cc2)OC1=O` [EXAMPLE 285, (R)-6-(4-fluorophenyl)-3-((S)-1-(4-fluorophenyl)ethyl)-6-(3-hydroxypropyl)-1,3-oxazinan-2-one], the IC50 was under 0.1 µM. Under setting [1], the inhibition at 0.1 µM was 96.2%.

Regarding `C[C@@H](c1ccc(Cl)cc1)N1CC[C@](CCC(N)=O)(c2ccccc2)OC1=O` [EXAMPLE 287, 3-((R)-3-((S)-1-(4-chlorophenyl)ethyl)-2-oxo-6-phenyl-1,3-oxazinan-6-yl)propanamide], the IC50 was under 0.1 µM. For the same molecule, the inhibition at 0.1 µM under setting [1] was 89.8%.
